Source: paper PMC5974090, “A fluorescence anisotropy assay to discover and characterize ligands targeting the maytansine site of tubulin” (Nature Communications, 2018)
Read-outs that look alike come from different tables or passages of the source.

Experiments:
[1] = target: maytansine site of tubulin (Bos taurus, UniProt Q6B856); format: binding; details: for Kd: 25 °C, mean ± SEM, n = 3, read-out: Kd from FcMaytansine displacement
Procedure: Vinblastine and colchicine were used as negative controls. […] The mixture was then incubated with an unlabeled competitor at increasing concentrations prior to anisotropy measurements.
Fluorescence anisotropy competition experiments and analyses were performed as previously described[34] with minor modifications. Samples containing 10 nM FcMaytansine and 4 nM tubulin in assay buffer were titrated with increasing amounts of a competitor at 25 °C in black Greiner 384-well, flat-bottom microplates and in a final volume of 50 µL. Fluorescence anisotropy measurements were carried out as described above.
The system was solved using EQUIGRA5[34] using the binding constant of FcMaytansine and a stoichiometry of 1:1 for the tubulin–FcMaytansine complex (EQUIGRA5 can be obtained upon request from Fernando Díaz, fer@cib.csic.es).

tubulin [2] = target: T1, tubulin (Bos taurus, UniProt Q6B856); experiment: Fluorescence anisotropy titration of FcMaytansine with tubulin (direct binding); details: 25 °C
Procedure: The binding constant of the fluorescent FcMaytansine probe to tubulin was determined by fluorescence anisotropy titration at 25 °C in black Greiner 384-well, flat-bottom microplates and in a final volume of 50 µL. 10 nM FcMaytansine in assay buffer (15 mM PIPES-KOH, pH 6.8, supplemented with 0.3 mM MgCl2 and 0.2 mM EDTA) was titrated with increasing amounts of tubulin up to 400 nM. The anisotropy and fluorescence values of the free (r = 0.016 ± 0.001, fluorescence = 1 (arbitrary units)) and bound (r = 0.245 ± 0.005, fluorescence = 3.10 ± 0.05 (arbitrary units)) states were determined in the absence and presence of 400 nM tubulin, respectively. The anisotropy was measured using a PHERAstar microplate reader (BMG Labtech) with the fluorescence polarization module. […] The read height and the gain were adjusted automatically. […]
In order to calculate the binding constant of FcMaytansine and one of a non-fluorescent ligand from a competition experiment, the fractional saturation, νb, of FcMaytansine has to be determined. Binding of FcMaytansine to tubulin was measured through changes in its anisotropy. […]
In the simplest case of a fluorescent probe with no quantum yield difference between the bound and the free state, the fraction of bound (νb) and free (νf) fluorophore coincides with the fluorescence fractions for the bound and free fluorophore (Fb and Ff, respectively). […]

tubulin [3] = target: T1, tubulin; design: method as in Panda et al., Proc Natl Acad Sci USA 95, 9313 (1998); details: exact binding site on tubulin unknown; ref Panda et al., Proc Natl Acad Sci USA 95, 9313 (1998); cited from earlier work
[4] = design: method as in Panda et al., Proc Natl Acad Sci USA 95, 9313 (1998); details: ref Panda et al., Proc Natl Acad Sci USA 95, 9313 (1998); cited from earlier work
tubulin [5] = target: T1, tubulin; design: method as in PMID 20937594; details: reported previously; buffer with 100 mM PIPES; read-out: Kd for the tubulin-maytansine interaction; cited from earlier work
human cancer cell lines = system: human cancer cell lines; design: method as in Xu et al. 2011; Rothmeier et al. 2010; Paterson et al. 2003; details: large panel of human cancer cell lines; ref Xu et al. 2011; Rothmeier et al. 2010; Paterson et al. 2003; cited from earlier work
mouse xenograft models = system: mouse xenograft models; design: method as in Xu et al. 2011; Rothmeier et al. 2010; Paterson et al. 2003; details: ref Xu et al. 2011, Rothmeier et al. 2010, Paterson et al. 2003; cited from earlier work
cells = system: cells; design: method as in PMID 25826705; details: in vitro cytotoxicity, compound added exogenously; cited from earlier work
[6] = 10 nM FcMaytansine, 4 nM tubulin, increasing competitor concentrations
[7] = 10 nM FcMaytansine, 4 nM tubulin

T1 sequence (Q6B856 whole entry): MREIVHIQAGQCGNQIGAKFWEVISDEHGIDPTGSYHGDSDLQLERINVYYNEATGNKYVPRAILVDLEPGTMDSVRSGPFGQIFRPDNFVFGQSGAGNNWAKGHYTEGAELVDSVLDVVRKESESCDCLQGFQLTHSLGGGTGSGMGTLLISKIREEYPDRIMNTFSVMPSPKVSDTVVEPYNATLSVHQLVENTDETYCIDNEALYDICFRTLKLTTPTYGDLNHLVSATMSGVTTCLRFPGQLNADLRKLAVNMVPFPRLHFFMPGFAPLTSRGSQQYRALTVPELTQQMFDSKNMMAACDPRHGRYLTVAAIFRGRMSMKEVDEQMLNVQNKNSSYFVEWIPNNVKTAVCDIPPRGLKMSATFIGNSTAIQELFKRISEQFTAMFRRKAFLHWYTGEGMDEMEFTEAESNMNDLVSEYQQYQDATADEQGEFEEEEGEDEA
T1 sequence (P81947 whole entry partner): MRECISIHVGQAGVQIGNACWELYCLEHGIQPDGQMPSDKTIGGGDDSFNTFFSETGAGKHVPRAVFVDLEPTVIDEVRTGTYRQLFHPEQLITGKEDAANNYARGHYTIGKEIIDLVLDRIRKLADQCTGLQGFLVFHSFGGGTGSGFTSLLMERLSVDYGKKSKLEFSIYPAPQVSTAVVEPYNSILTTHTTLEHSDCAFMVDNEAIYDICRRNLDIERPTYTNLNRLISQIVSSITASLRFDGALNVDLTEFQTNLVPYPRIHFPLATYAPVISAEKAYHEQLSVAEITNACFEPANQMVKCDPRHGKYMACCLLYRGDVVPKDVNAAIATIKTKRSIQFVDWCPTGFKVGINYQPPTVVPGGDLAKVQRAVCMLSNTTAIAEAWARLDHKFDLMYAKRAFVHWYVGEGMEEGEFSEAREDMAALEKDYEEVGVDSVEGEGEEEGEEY
maytansine site of tubulin, sequence (P81947 whole entry): as the sequence (P81947 whole entry partner) above
maytansine site of tubulin, sequence (Q6B856 whole entry): as the sequence (Q6B856 whole entry) above

Compound: C/C=C/[C@H](O)C(C)(C(=O)OC)[C@@H]1C\C=C/C=C/C=C/c2nc(co2)C(=O)O[C@H](C(C)(C(=O)OC)[C@@H](O)/C=C/C)C\C=C/C=C/C=C/c2nc(co2)C(=O)O1 (some centres unmarked) [disorazole Z]
- binding affinity value relative to maytansine and spongistatin ([1]; times higher Kd than maytansine and spongistatin, rebuttal letter): ~ 100 times

Compound: COc1cc2cc(c1Cl)N(C)C(=O)CC(OC(=O)CCCCc1cn(CCCNC(=O)c3ccc(C(=O)O)c(-c4c5ccc(=O)cc-5oc5cc(O)ccc45)c3)nn1)C1(C)OC1C(C)C1CC(O)(NC(=O)O1)C(OC)C=CC=C(C)C2 (centres unmarked) [FcMaytansine]
- Kd (tubulin [2]; 10 nM FcMaytansine, tubulin 0 to 400 nM, single binding site model, mean ± SEM, n = 5, read-out: dissociation constant, Kd, for the tubulin-FcMaytansine interaction): 6.8 ± 0.8 nM
- binding constant of FcMaytansine to tubulin (tubulin [2]; stoichiometry 1:1, association constant): 1.6 ± 0.3 × 10^8 M^−1

Compound: ansamitocin P3
- displacement of FcMaytansine from tubulin [1, 6]: fully displaced

Compound: COc1ccc(C[C@H]2NC(=O)/C=C/C[C@@H]([C@H](C)[C@H]3O[C@@H]3c3ccccc3)OC(=O)[C@H](CC(C)C)OC(=O)C(C)(C)CNC2=O)cc1Cl [Cryptophycin 52]
- Kd (tubulin [3]): 47 nM
- IC50 [4]: 0.02 nM

Compound: C/C=C\C[C@@H](C/C=C\NC(=O)[C@@H](NC(=O)\C=C/C=C\C(C)=C\[C@H](C)[C@@H]1CC=C(OC)C(=O)O1)C(C)(C)C)OC(N)=O [PM060184]
- Kd [1, 7]: 111 ± 30 nM
- displacement of FcMaytansine from tubulin [1, 6]: fully displaced

Compound: COc1cc2cc(c1Cl)N(C)C(=O)C[C@H](OC(=O)[C@H](C)N(C)C(C)=O)[C@]1(C)O[C@H]1[C@H](C)[C@@H]1C[C@@](O)(NC(=O)O1)[C@H](OC)/C=C/C=C(\C)C2 [maytansine]
- Kd (tubulin [5]): ~900 nM

Compound: spongistatin-1
- Kd [1, 7]: 9.5 ± 1.9 nM
- antiproliferative activity (human cancer cell lines): single digit picomolar
- in vivo antitumour activity (mouse xenograft models): antitumour activity

Compound: CC[C@]1(O)C[C@@H]2CN(CCc3c([nH]c4ccccc34)[C@@](C(=O)OC)(c3cc4c(cc3OC)N(C)[C@H]3[C@@](O)(C(=O)OC)[C@H](OC(C)=O)[C@]5(CC)C=CCN6CC[C@]43[C@@H]65)C2)C1 [vinblastine]
- displacement of FcMaytansine from tubulin [1]: not

Compound: COc1cc2cc(c1Cl)N(C)C(=O)CC(OC(=O)C(C)N(C)C(=O)CCSC1CC(=O)N(CC3CCC(C(=O)NCCCCC(N)C(=O)O)CC3)C1=O)C1(C)OC1C(C)C1CC(O)(NC(=O)O1)C(OC)C=CC=C(C)C2 (centres unmarked) [M9]
- fold less potent in cellular assays than S-Me DM1 (cells): ~ 450 fold
